System: MPTP primates
Test: Dyskinesia and locomotor studies in drug-naive MPTP primates incl. L-Dopa and apomorphine challenge
Experimental: Evaluation of dyskinesias was performed in the efficacy studies describe above using a novel method for dyskinesia quantification based on video dyskinesia analysis (VDA) that assesses the whole range of dyskinetic movement continuously during the observed video sequence, using a standardized protocol.
To mimic clinical conditions, these drug-naive animals were further challenged with acute systemic administration of L-Dopa then with a pro-dyskinetic short-acting D1/D2 dopaminergic agonist (apomorphine).
Experimental Design. Neurotoxin MPTP was first administrated to 23 macaques until they developed severe Parkinsonism, these were then divided into experimental groups according to the following experiments: • 1. […] Animals were then challenged with L-Dopa and the number of dyskinesias was assessed with a specific software (The Observer®, Noldus)
Behaviour. All animals were assessed daily for their general clinical condition with special attention paid to the nutritional status. At the same time, the general neurological state of each macaque was assessed both pre- and post-lentiviral injections. To objectively quantify our neurological observations, animals were video-taped for 30 minutes before MPTP lesioning and at regular intervals following viral injections. The videos were then analyzed off-line by an examiner blinded to the experimental conditions. […]

CN1CCc2cccc3c2[C@H]1Cc1ccc(O)c(O)c1-3 [apomorphine]
dyskinesia induced by the drug in drug naive MPTP animals (acute systemic administration, no therapeutic vector): induced hyperkinetic behaviour with numerous dyskinetic movements | locomotor activity of MPTP-long term and MPTP-LacZ primates after the drug (oral L-Dopa / apomorphine injection, to levels similar to normal primates, p<0.05): improved the locomotor activity
